Measured values published in patent US10059713B2 (Takeda Pharmaceutical Company Limited, priority 2014, dated 2018).

These molecules were tested against human GPR43 (Homo sapiens (Human), UniProt O15552) (assay: Ca-Flux functional assay: determination of agonist/positive allosteric modulator (PAM) activity). Conditions: CHO-K1 Gα16 cells stably expressing human GPR43; compound added with EC20 sodium acetate; intracellular Ca2+ by FLIPR; does not distinguish agonist from PAM.
Assay type: cell-based
Protocol: Ca-Flux Functional Assay: Determination of Agonist/Positive Allosteric Modulator (PAM) Activity
GPR43 agonist/PAM activity was determined by measuring changes in intracellular calcium levels using a Ca^2+ sensitive fluorescent dye. The changes in fluorescent signal were monitored by FLIPR (manufactured by Molecular Devices). GPR43 mediated increases in intracellular Ca^2+ concentration were readily detected upon activation with sodium acetate. Prior to the assay (24 hours), CHO-K1 Gα16 cells stably expressing human GPR43 were-seeded in cell culture medium in black, clear-bottom 384-well plates (Corning Inc) and grown overnight at 37° C., 5% CO2. On the day of the assay, cell culture media was removed and cells were loaded with Calcium 5 Dye (Molecular Devices) diluted in HBSS containing 25 mM HEPES, 2.5 mM Probenecid, 0.1% BSA for 1 hour at 37° C., 5% CO2. 10 point half log concentration response curves of sodium acetate from 10 mM were conducted prior to the testing of compounds to calculate the sodium acetate concentration that produces 20% of the maximal response (EC20). Test compounds (at 10 point half log concentration response curves from 10 μM) were added in the presence of sodium acetate to achieve a final concentration that produces approximately 20% maximal response as calculated from the previous experiment. The changes in fluorescent signal were monitored by FLIPR upon addition of the compound/EC20 sodium acetate mix. The EC50 values were determined from ten point concentration response curves. Curves were generated using the average of two wells for each data point.
The above assay detects both GPR43 receptor agonists and positive allosteric modulators of the GPR43 receptor, without distinguishing between the two. Activity in either regard is useful in the treatment of conditions associated with GPR43 receptor activity.

Chain of human GPR43 (O15552 whole entry): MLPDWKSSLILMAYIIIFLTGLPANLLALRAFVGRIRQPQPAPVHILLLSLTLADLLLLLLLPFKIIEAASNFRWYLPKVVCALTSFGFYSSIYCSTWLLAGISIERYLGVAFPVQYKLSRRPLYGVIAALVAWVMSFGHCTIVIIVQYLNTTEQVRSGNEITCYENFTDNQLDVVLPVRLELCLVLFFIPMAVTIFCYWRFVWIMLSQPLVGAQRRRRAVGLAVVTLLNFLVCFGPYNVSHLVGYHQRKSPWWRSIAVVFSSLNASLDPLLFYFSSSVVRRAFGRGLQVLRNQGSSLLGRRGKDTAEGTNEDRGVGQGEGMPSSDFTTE

| SMILES | EC50 [nM] |
| --- | --- |
| Cc1nc(C2CCCCC2)c2[nH]c(N)c(S(=O)(=O)c3ccccc3)c2n1 [Example 40, 7-(benzenesulfonyl)-4-cyclohexyl-2-methyl-5H-pyrrolo[3,2-d]pyrimidin-6-amine] | 55 |
| Cc1nc(N2CCO[C@@H](C)C2)c2[nH]c(N)c(S(=O)(=O)c3ccccc3F)c2n1 [Example 218, 7-(2-fluorobenzenesulfonyl)-2-methyl-4-[(2S)-2-methylmorpholin-4-yl]-5H-pyrrolo[3,2-d]pyrimidin-6-amine] | 2 |
| Nc1[nH]c2c(OC3CCC(F)(F)CC3)ncnc2c1S(=O)(=O)c1ccccc1 [Example 211, 7-(benzenesulfonyl)-4-[(4,4-difluorocyclohexyl)oxy]-5H-pyrrolo[3,2-d]pyrimidin-6-amine] | 34 |
| COc1cccc(S(=O)(=O)c2c(N)[nH]c3c(N4CCOC(C)C4)ncnc23)c1 (stereo not shown) [Example 154, 7-(3-methoxybenzenesulfonyl)-4-(2-methylmorpholin-4-yl)-5H-pyrrolo[3,2-d]pyrimidin-6-amine] | 47 |
| Cc1nc(N2C[C@@H](C)O[C@H](C)C2)c2[nH]c(N)c(S(=O)(=O)c3cccc(F)c3)c2n1 [Example 200, 4-[(2R,6R)-2,6-dimethylmorpholin-4-yl]-7-(3-fluorobenzenesulfonyl)-2-methyl-5H-pyrrolo[3,2-d]pyrimidin-6-amine] | 25 |
| COC[C@H]1CCCN1c1ncnc2c(S(=O)(=O)c3ccccc3)c(N)[nH]c12 [Example 118, 7-(benzenesulfonyl)-4-[(2R)-2-(methoxymethyl)pyrrolidin-1-yl]-5H-pyrrolo[3,2-d]pyrimidin-6-amine] | 5180 |
| Cc1ccc(-c2ncnc3c(S(=O)(=O)c4ccccc4)c(N)[nH]c23)cc1 [Example 104, 7-(benzenesulfonyl)-4-(4-methylphenyl)-5H-pyrrolo[3,2-d]pyrimidin-6-amine] | 59 |
| Nc1[nH]c2c(C3CCC(F)(F)CC3)ncnc2c1S(=O)(=O)c1ccccc1 [Example 155, 7-(benzenesulfonyl)-4-(4,4-difluorocyclohexyl)-5H-pyrrolo[3,2-d]pyrimidin-6-amine] | 330 |
| Nc1[nH]c2c(C3CCCC3)ncnc2c1S(=O)(=O)c1ccccc1 [Example 23, 7-(benzenesulfonyl)-4-cyclopentyl-5H-pyrrolo[3,2-d]pyrimidin-6-amine] | 97 |
| COc1ccc(S(=O)(=O)c2c(N)[nH]c3c(N4CCC5(CC4)CC5)ncnc23)cc1 [Example 72, 4-{6-azaspiro[2.5]octan-6-yl}-7-(4-methoxybenzenesulfonyl)-5H-pyrrolo[3,2-d]pyrimidin-6-amine] | 26 |
| Cc1nc(N2CCO[C@@H](C)C2)c2[nH]c(N)c(S(=O)(=O)c3ccc(Br)cc3F)c2n1 [Example 239, 7-(4-bromo-2-fluorobenzenesulfonyl)-2-methyl-4-[(2S)-2-methylmorpholin-4-yl]-5H-pyrrolo[3,2-d]pyrimidin-6-amine] | 2 |
| CCC1(CC)CN(c2ncnc3c(S(=O)(=O)c4ccccc4)c(N)[nH]c23)CCO1 [Example 103, 7-(benzenesulfonyl)-4-(2,2-diethylmorpholin-4-yl)-5H-pyrrolo[3,2-d]pyrimidin-6-amine] | 36 |
| Nc1[nH]c2c(N3CCOC4(CCCC4)C3)ncnc2c1S(=O)(=O)c1ccccc1 [Example 102, 7-(benzenesulfonyl)-4-{6-oxa-9-azaspiro[4.5]decan-9-yl}-5H-pyrrolo[3,2-d]pyrimidin-6-amine] | 18 |
| Nc1[nH]c2c(C3CCCCC3)ncnc2c1S(=O)(=O)c1ccccc1 [Example 3, 7-(benzenesulfonyl)-4-cyclohexyl-5H-pyrrolo[3,2-d]pyrimidin-6-amine] | 43 |
| Cc1csc(COc2ncnc3c(S(=O)(=O)c4ccccc4)c(N)[nH]c23)n1 [Example 161, 7-(benzenesulfonyl)-4-[(4-methyl-1,3-thiazol-2-yl)methoxy]-5H-pyrrolo[3,2-d]pyrimidin-6-amine] | 1400 |
| Nc1[nH]c2c(OC3CCCCC3)ncnc2c1S(=O)(=O)c1ccccc1 [Example 160, 7-(benzenesulfonyl)-4-(cyclohexyloxy)-5H-pyrrolo[3,2-d]pyrimidin-6-amine] | 39 |
| Nc1[nH]c2cc(C3=CCCCC3)cnc2c1S(=O)(=O)c1ccccc1 [Example 25, 3-(benzenesulfonyl)-6-(cyclohex-1-en-1-yl)-1H-pyrrolo[3,2-b]pyridin-2-amine] | 288 |

| SMILES | EC50 [nM] |
| --- | --- |
| Cc1cccc(-c2nc(C)nc3c(S(=O)(=O)c4ccccc4)c(N)[nH]c23)c1 [Example 148, 7-(benzenesulfonyl)-2-methyl-4-(3-methylphenyl)-5H-pyrrolo[3,2-d]pyrimidin-6-amine] | 14 |
| Cc1nc(N2CCOC(C)(C)C2)c2[nH]c(N)c(S(=O)(=O)c3cccc(F)c3F)c2n1 [Example 280, 7-(2,3-difluorobenzenesulfonyl)-4-(2,2-dimethylmorpholin-4-yl)-2-methyl-5H-pyrrolo[3,2-d]pyrimidin-6-amine] | 3 |
| Nc1[nH]c2c(C3=CCCCC3)ncnc2c1S(=O)(=O)C1CCOC1 (stereo not shown) [Example 78, 4-(cyclohex-1-en-1-yl)-7-(oxolane-3-sulfonyl)-5H-pyrrolo[3,2-d]pyrimidin-6-amine] | 2340 |
| Cc1nc(Nc2ccc(Cl)cc2)c2[nH]c(N)c(S(=O)(=O)c3ccccc3F)c2n1 [Example 300, N4-(4-chlorophenyl)-7-(2-fluorobenzenesulfonyl)-2-methyl-5H-pyrrolo[3,2-d]pyrimidine-4,6-diamine] | 9 |
| COC(=O)Nc1[nH]c2c(C3=CCCCC3)ncnc2c1S(=O)(=O)c1ccccc1 [Example 17, Methyl-N-[7-(benzenesulfonyl)-4-(cyclohex-1-en-1-yl)-5H-pyrrolo[3,2-d]pyrimidin-6-yl]carbamate] | 5090 |
| Nc1[nH]c2c(N3CCOC(C(F)(F)F)C3)ncnc2c1S(=O)(=O)c1ccccc1 (stereo not shown) [Example 141, 7-(benzenesulfonyl)-4-[2-(trifluoromethyl)morpholin-4-yl]-5H-pyrrolo[3,2-d]pyrimidin-6-amine] | 12 |
| Cc1nc(N2CCO[C@@H](C)C2)c2[nH]c(N)c(S(=O)(=O)c3ccc(Cl)cc3F)c2n1 [Example 235, 7-(4-chloro-2-fluorobenzenesulfonyl)-2-methyl-4-[(2S)-2-methylmorpholin-4-yl]-5H-pyrrolo[3,2-d]pyrimidin-6-amine] | 2 |
| Cc1ccccc1S(=O)(=O)c1c(N)[nH]c2c(N3CCOC(C)C3)ncnc12 (stereo not shown) [Example 120, 7-(2-methylbenzenesulfonyl)-4-(2-methylmorpholin-4-yl)-5H-pyrrolo[3,2-d]pyrimidin-6-amine] | 131 |
| C[C@@H]1CN(c2ncnc3c(S(=O)(=O)c4ccccc4)c(N)[nH]c23)CCO1 [Example 137, 7-(benzenesulfonyl)-4-[(2R)-2-methylmorpholin-4-yl]-5H-pyrrolo[3,2-d]pyrimidin-6-amine] | 52 |
| COc1ccc(S(=O)(=O)c2c(N)[nH]c3c(N4CCCC(C)C4)ncnc23)cc1 (stereo not shown) [Example 106, 7-(4-methoxybenzenesulfonyl)-4-(3-methylpiperidin-1-yl)-5H-pyrrolo[3,2-d]pyrimidin-6-amine] | 15 |
| Cc1nc(N2CCOC(C)(C)C2)c2[nH]c(N)c(S(=O)(=O)c3cc(F)ccc3F)c2n1 [Example 288, 7-(2,5-difluorobenzenesulfonyl)-4-(2,2-dimethylmorpholin-4-yl)-2-methyl-5H-pyrrolo[3,2-d]pyrimidin-6-amine] | 8 |
| COc1ccc(N(C)S(=O)(=O)c2c(N)[nH]c3c(C4=CCCCC4)ncnc23)cc1 [Example 14, 6-amino-4-(cyclohex-1-en-1-yl)-N-(4-methoxyphenyl)-N-methyl-5H-pyrrolo[3,2-d]pyrimidine-7-sulfonamide] | 2580 |
| Nc1[nH]c2c(C3=CCCCC3)ncnc2c1S(=O)(=O)c1cccc(F)c1 [Example 37, 4-(cyclohex-1-en-1-yl)-7-[(3-fluorobenzene)sulfonyl]-5H-pyrrolo[3,2-d]pyrimidin-6-amine] | 80 |
| CC1CN(c2ncnc3c(S(=O)(=O)CCc4ccccc4)c(N)[nH]c23)CCO1 (stereo not shown) [Example 153, 4-(2-methylmorpholin-4-yl)-7-(2-phenylethanesulfonyl)-5H-pyrrolo[3,2-d]pyrimidin-6-amine] | 814 |
| Nc1[nH]c2c(N3CC4CCC(C3)O4)ncnc2c1S(=O)(=O)c1ccccc1 [Example 132, 7-(benzenesulfonyl)-4-{8-oxa-3-azabicyclo[3.2.1]octan-3-yl}-5H-pyrrolo[3,2-d]pyrimidin-6-amine] | 1510 |
| CC1CN(c2ncnc3c(S(=O)(=O)c4ccccc4)c(N)[nH]c23)CCO1 (stereo not shown) [Example 52, 7-(benzenesulfonyl)-4-(2-methylmorpholin-4-yl)-5H-pyrrolo[3,2-d]pyrimidin-6-amine] | 43 |
| Cc1cc(C)n(-c2ncnc3c(S(=O)(=O)c4ccccc4)c(N)[nH]c23)n1 [Example 140, 7-(benzenesulfonyl)-4-(3,5-dimethyl-1H-pyrazol-1-yl)-5H-pyrrolo[3,2-d]pyrimidin-6-amine] | 72 |
